We go through three compounds from patent US20060116403A1, “Therapeutic target and uses thereof” (priority 2002, published 2006).

Where two headings read alike, the source gives them in different places.

In series [1] the test system is human vascular smooth muscle cells. Kind of series: Size of proteoglycans and cleaved GAG chains by SDS-PAGE. The series is classed as cell-based. Here is the method:
DEAE-Sephacel columns were prepared as previously described 19 and were washed with low salt buffer containing 8 M urea, 0.25 M NaCl, 0.02 M disodium EDTA and 0.5% Triton X-100. The media of 3 identical treatments was pooled and applied to the column. The columns were washed with low salt buffer to remove non-proteoglycan associated radioactivity. Fractions were collected with high salt buffer containing 8 M urea, 3 M NaCl, 0.02 M disodium EDTA and 0.5% Triton X-100.
Samples were prepared for SDS-PAGE by set counts so that the amount of radioactivity applied to the gel was the same for each treatment.
Proteoglycans eluted from DEAE columns and precipitated once with ethanol/potassium acetate solution were treated with sodium borohydride (1 M) in NaOH (50 mM) for 4 h at 45° C. to release the GAG chains. The free GAG chains were precipitated with the ethanol/potassium acetate solution and analyzed for size by SDS-PAGE.
For the estimation of apparent relative masses (MrS) ^14C high molecular weight standards (GIBCO BRL, Grand Island, U.S.A) were run in separate lanes.
The labeled proteoglycans, cleaved chains, xyloside-initiated GAGs and standard proteins were exposed (3 days) to a Fujifilm imaging plate (Fuji Photo Film Co., Japan) and the imaging plate scanned by the Bio-imaging analyzer BAS-1000 MacBas (Fuji Photo Film Co., Japan).

Series [2] deals with human vascular smooth muscle cells (internal mammary artery). The experiment in a line: 35S-sulfate incorporation into total secreted proteoglycans (CPC precipitation). Type of series: cell-based. The protocol: The Human Ethics Committee of the Alfred Hospital and Baker Heart Research Institute approved the acquisition of tissue.
Cells were metabolically labeled with [^35S]-sulfate ([…]) for the final 24 h.
(§1) The culture media were collected and each plate rinsed with Dulbecco's PBS (0.25 ml). Aliquots (50 μl) of the media sample were spotted in duplicate on 30×15 mm rectangles of Whatman® 3M chromatography paper (Aldrich, Milwaukee, U.S.A.). The paper was washed five times in a solution containing cetylpyridinium chloride (CPC, 1% w/v) and NaCl (50 mM). Following air drying at room temperature, the paper from each sample was placed in liquid scintillation fluid (Packard, Groningen, The Netherlands) and radioactivity counted in a Beckman Coulter liquid scintillation analyzer (Fullerton, U.S.A). Counts from cells labeled with [^35S]-sulfate and Tran^35SLabel represented total sulfated GAGs and total core protein respectively.

In a further series the target is cAbl kinase (Homo sapiens, UniProt P00519). Kind of series: Direct assay of cAbl kinase activity. The series is classed as biochemical. Here is the method:
The direct cAbl kinase inhibitory activity of several compounds was evaluated.

The subject of series [3] is human vascular smooth muscle cells. Kind of series: Xyloside-initiated GAG chain synthesis and size. The settings on record: xyloside 0.5 mM. The series is classed as cell-based. The protocol:
To study glycosaminoglycan (GAG) synthesis, cells were treated with exogenous xyloside which acts as an artificial and alternative substrate for the enzymes which normally catalyze the initiation of GAG chains on the protein core Nigro J et al (2002)) and Moses, J., Oldberg, A. & Fransson, L. A. Initiation of galactosaminoglycan biosynthesis. Separate galactosylation and dephosphorylation pathways for phosphoxylosylated decorin protein and exogenous xyloside. Eur J Biochem 260, 879-84 (1999)) generating free xyloside-initiated GAG chains. β-D-Xylopyranoside (xyloside) (0.5 mM) was prepared in DMEM with FBS (0.1%) and DMSO (0.1%). […] Cells were metabolically labeled with [^35S]-sulfate (50 μCi/well) for 24 hours.
SDS-PAGE gels were prepared following the procedure of Laemelli (Laemmli, U.K. Cleavage of structural proteins during the assembly of the head of bacteriophage T4. Nature 227, 680-5 (1970)) on 4-13% linear gradient separating gels for intact proteoglycans and 4-20% separating gels for cleaved chains and xyloside-initiated GAGs, with a 3.5% stacking gel. For the estimation of apparent relative masses (MrS) ^14C high molecular weight standards (GIBCO BRL, Grand Island, U.S.A) were run in separate lanes.
Cell cultures supplemented with xyloside synthesize the normal family of proteoglycans but also free GAG chains which are synthesized on the xyloside acting as a “false acceptor” for GAG initiation. […] The analysis of the production of the xyloside-initiated GAG chains therefore represents an independent assay of the activity of the GAG elongation process which normally determine the length of GAGs on proteoglycans. […]. GAG chains produced on xyloside are considerably smaller than free GAG chains synthesized on and released from proteoglycans (compare FIG. 2 right panel with FIG. 3 lower panel). The band at the bottom of the SDS-PAGE is the GAG chains initiated on xyloside. Genistein and daidzein have no effect on the size of the GAGs either under basal or PDGF stimulated conditions. […].

Series [4] shares this test system. The experiment in a line: Proteoglycan core protein synthesis (35S-methionine/cysteine, CPC precipitation). Type of series: cell-based. The protocol: as §1
Effects on core protein biosynthesis can be evaluated by metabolically labeling the cells with labeled amino acids (^35S-methionine/cysteine) and using an isolation technique “CPC precipitation” which is specific for isolating proteoglycans. Thus, cells were treated identically to the above experiments but labeled with ^35S-methionine/cysteine. […]. Core protein biosynthesis was stimulated by PDGF (FIG. 5; […].

Series [5] concerns vascular smooth muscle cells. The experiment in a line: 35S-sulphate incorporation into proteoglycans, cAbl siRNA transfection compared with imatinib. The series is classed as cell-based, human. The note with it: culture media. The source says:
An independent method is available to examine this question by using molecular biology techniques to block the expression of the mRNA for cAbl and thus reduce the actual level of cAbl mRNA, protein and enzyme activity in the cell. A new technique of post-transcriptional gene silencing known as small inhibitory RNA (or siRNA) has recently been developed in which cells are transfected with an siRNA which leads to the breakdown and loss of the target mRNA in this case cAbl RNA. This is a highly specific technique which complements the pharmacological approach. […] Target sequences for siRNA have been identified from the scanning of the coding region of the human c-Abl gene. Four of these potential sites were selected and compared to a genome database to identify any sequence homology to other genes. Following identification of target sequences, sense and anti-sense siRNA oligonucleotide templates are constructed consisting of 21 nucleotides encoding the siRNA and 8 nucleotides complementary to a promoter primer. […] Both sense and anti-sense siRNA oligonucleotide templates were hybridised to a promoter primer. Double stranded siRNA transcription templates was created by extending the hybridised oligonucleotides using the Klenow fragment of DNA polymerase and RNA polymerase used to transcribe the sense and anti-sense siRNA templates which were then hybridised to dsRNA. […]

Sequence of cAbl kinase (P00519 whole entry): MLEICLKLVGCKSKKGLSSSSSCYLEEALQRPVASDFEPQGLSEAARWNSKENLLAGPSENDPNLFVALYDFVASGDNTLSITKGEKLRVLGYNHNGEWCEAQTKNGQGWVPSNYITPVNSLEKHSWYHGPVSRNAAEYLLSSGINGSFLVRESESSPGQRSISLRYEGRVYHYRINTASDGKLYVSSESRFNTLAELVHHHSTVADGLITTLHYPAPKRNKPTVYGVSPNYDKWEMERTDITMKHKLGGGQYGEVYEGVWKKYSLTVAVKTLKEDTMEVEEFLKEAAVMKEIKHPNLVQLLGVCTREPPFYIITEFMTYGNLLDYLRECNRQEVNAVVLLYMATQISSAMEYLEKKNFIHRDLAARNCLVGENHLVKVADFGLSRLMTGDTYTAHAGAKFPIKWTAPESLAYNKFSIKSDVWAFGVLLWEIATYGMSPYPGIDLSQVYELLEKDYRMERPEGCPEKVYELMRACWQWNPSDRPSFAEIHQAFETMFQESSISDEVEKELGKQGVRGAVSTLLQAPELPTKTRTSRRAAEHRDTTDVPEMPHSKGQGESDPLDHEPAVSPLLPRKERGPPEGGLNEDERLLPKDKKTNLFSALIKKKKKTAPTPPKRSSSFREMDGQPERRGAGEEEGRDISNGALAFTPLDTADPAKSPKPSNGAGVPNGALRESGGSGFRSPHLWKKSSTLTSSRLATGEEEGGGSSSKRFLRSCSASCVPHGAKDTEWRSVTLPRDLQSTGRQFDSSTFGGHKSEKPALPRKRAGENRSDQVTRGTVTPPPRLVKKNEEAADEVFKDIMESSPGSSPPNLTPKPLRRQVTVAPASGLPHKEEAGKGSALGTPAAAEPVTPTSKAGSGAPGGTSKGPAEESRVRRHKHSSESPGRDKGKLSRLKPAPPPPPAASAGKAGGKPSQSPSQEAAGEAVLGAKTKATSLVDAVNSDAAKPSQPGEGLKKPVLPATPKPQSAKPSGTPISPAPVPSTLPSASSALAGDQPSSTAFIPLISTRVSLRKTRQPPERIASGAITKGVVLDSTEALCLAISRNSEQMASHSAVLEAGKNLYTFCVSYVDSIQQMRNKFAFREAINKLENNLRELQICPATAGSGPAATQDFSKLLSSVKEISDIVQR

`O=c1c(-c2ccc(O)cc2)coc2cc(O)ccc12` [daidzein, 4′,7-dihydroxyisoflavone]: in series [1] (PDGF treated cells), the “effect on elongation of GAG chains stimulated by PDGF” value is reported as “no effect”. Besides, the “effect on size of GAG chains released from proteoglycans, basal” value in series [1] (basal (untreated cells)) was “no effect”. The “effect on proteoglycan size (SDS-PAGE)” value in series [1] (basal and PDGF treated cells, imatinib 1 μM, genistein/daidzein 100 μM) is listed as “no effect”. In addition, the “inhibition of basal proteoglycan production” value in series [2] (basal, daidzein 100 μM) is on record as “little inhibitory activity”. For the same compound, the “inhibition of cAbl kinase activity” value against cAbl kinase is “little activity”. For the same compound, the “effect on combined production of proteoglycans and xyloside-initiated GAG chains” value in series [3] was “essentially identical”. Also, the “effect on increase in size of GAG chains on xyloside, PDGF” value in series [3] (PDGF treated cells) is given as “no effect”. Moreover, the “effect on size of GAG chains on xyloside, basal” value in series [3] (basal) is “no effect”. The “effect on PDGF-stimulated core protein biosynthesis” value in series [4] (PDGF stimulated) was “attenuated”. In addition, the “effect on basal proteoglycan core protein biosynthesis” value in series [4] (basal) was “considerably less active than genistein”.
Take “siRNA (MB 61): siRNA directed to cAbl; anti-sense template 5′-AAGAAAAACTTCATCCACAGA-3′, sense template 5′-AATCTGTGGATGAAGTTTTTC-3′ (antisense AAGAAAAACTTCATCCACAGA; sense AATCTGTGGATGAAGTTTTTC; chemistry not given here; the letters are possibly those of the target site)”: the “reduction in 35S-sulphate incorporation, PDGF cells” value in series [5] (PDGF stimulated) was found to be 50%. Moreover, in series [5] (control cells, 24 h), the “inhibition of radiosulphate incorporation, control cells” value is 30-40%.
On to `CO[C@H]1[C@@H](OC)C[C@H](C)[C@@H](OC)C2=CC(=O)C=C(NC(=O)/C(C)=C/C=C\[C@H](OC)[C@@H](OC(N)=O)/C(C)=C/[C@@H]1C)C2=O` [herbimycin], for which, in series [1] (herbimycin), the “effect on size of GAGs on proteoglycan (SDS-PAGE)” value is recorded as “does not reduce”. In addition, the “effect on radiosulfate incorporation into proteoglycans” value in series [2] (herbimycin) was “does not inhibit”. The “inhibition of cAbl kinase activity” value on cAbl kinase was “little activity”; against cAbl kinase (listed as Herbimycin), “no inhibitory activity”.
